Test results taken from patent publication US20100029620A1, “SUBSTITUTED TRIAZOLINE, TETRAZOLONE AND IMIDAZOLONE DERIVATIVES FOR USE AS A MEDICINE” (JANSSEN PHARMACEUTICA N.V., priority 2004, published 2010).

Assays:
[1] = molecular target: T1, human adrenergic-α2A receptor (Homo sapiens, UniProt P08913); experiment: Radioligand binding experiment for α2A-adrenoceptor ([3H]-raulwolscine competition, CHO cell membranes); details: [3H]raulwolscine 1 nM, membranes of CHO cells transfected with human α2A receptor; read-out: pIC50 α2A (converted)
T1 construct: expressed in transfected cells; membrane preparation
T1 sequence (P08913 1-465): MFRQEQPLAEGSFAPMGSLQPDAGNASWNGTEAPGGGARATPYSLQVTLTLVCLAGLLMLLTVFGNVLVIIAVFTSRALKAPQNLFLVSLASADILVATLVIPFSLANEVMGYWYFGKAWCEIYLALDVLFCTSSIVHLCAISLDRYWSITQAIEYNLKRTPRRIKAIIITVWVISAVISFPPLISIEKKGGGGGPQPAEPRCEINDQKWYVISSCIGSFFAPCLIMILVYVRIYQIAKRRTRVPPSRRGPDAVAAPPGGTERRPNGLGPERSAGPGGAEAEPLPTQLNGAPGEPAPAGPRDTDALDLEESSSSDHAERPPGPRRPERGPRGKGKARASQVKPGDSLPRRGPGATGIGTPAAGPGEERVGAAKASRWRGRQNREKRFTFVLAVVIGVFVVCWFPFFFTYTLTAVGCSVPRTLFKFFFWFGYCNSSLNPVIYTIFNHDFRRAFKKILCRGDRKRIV
Description: (§1) The interaction of the compounds of Formula (I) with α2C-adrenoceptor receptors was assessed in in vitro radioligand binding experiments. In general, a low concentration of a radioligand with a high binding affinity for a particular receptor or transporter is incubated with a sample of a tissue preparation enriched in a particular receptor or transporter or with a preparation of cells expressing cloned human receptors in a buffered medium. During the incubation, the radioligand binds to the receptor or transporter. When equilibrium of binding is reached, the receptor bound radioactivity is separated from the non-bound radioactivity, and the receptor- or transporter-bound activity is counted. The interaction of the test compounds with the receptor is assessed in competition binding experiments. Various concentrations of the test compound are added to the incubation mixture containing the receptor- or transporter preparation and the radioligand. The test compound in proportion to its binding affinity and its concentration inhibits binding of the radioligand. The radioligand used for […] receptor binding was [^3H]-raulwolscine.
(§2) CHO cells, stabile transfected with human adrenergic-α2A-, -α2B or α2C receptor cDNA, were cultured in Dulbecco's Modified Eagle's Medium (DMEM)/Nutrient mixture Ham's F12 (ratio 1:1)(Gibco, Gent-Belgium) supplemented with 10% heat inactivated fetal calf serum (Life Technologies, Merelbeke-Belgium) and antibiotics (100 IU/ml penicillin G, 100 μg/ml streptomycin sulphate, 110 μg/ml pyruvic acid and 100 μg/ml L-glutamine). One day before collection, cells were induced with 5 mM sodiumbutyrate. Upon 80-90% of confluence, cells were scraped in phosphate buffered saline without Ca^2+ and Mg^2+ and collected by centrifugation at 1500×g for 10 min. The cells were homogenised in Tris-HCl 50 mM using an Ultraturrax homogenizer and centrifuged for 10 min at 23,500×g. The pellet was washed once by resuspension and rehomogenization and the final pellet was resuspended in Tris-HCl, divided in 1 ml aliquots and stored at −70° C.
(§3) Membranes were thawed and re-homogenized in incubation buffer (glycylglycine 25 mM, pH 8.0). In a total volume of 500 μl, 2-10 μg protein was incubated with [^3H]raulwolscine (NET-722) (New England Nuclear, USA) (1 nM final concentration) with or without competitor for 60 min at 25° C. followed by rapid filtration over GF/B filter using a Filtermate196 harvester (Packard, Meriden, Conn.). Filters were rinsed extensively with ice-cold rinsing buffer (Tris-HCl 50 mM pH 7.4). Filter-bound radioactivity was determined by scintillation counting in a Topcount (Packard, Meriden, CT) and results were expressed as counts per minute (cpm). Non-specific binding was determined in the presence of 1 μM oxymetazoline for hα2A- and hα2B receptors and 1 μM spiroxatrine for hα2C receptors.
(§4) Data from assays in the presence of compound were calculated as a percentage of total binding measured in the absence of test compound. Inhibition curves, plotting percent of total binding versus the log value of the concentration of the test compound, were automatically generated, and sigmoidal inhibition curves were fitted using non-linear regression. The pIC50 values of test compounds were derived from individual curves.

[2] = molecular target: T2, human adrenergic-α2C receptor (Homo sapiens, UniProt P18825); experiment: Radioligand binding experiment for α2C-adrenoceptor ([3H]-raulwolscine competition, CHO cell membranes); details: [3H]raulwolscine 1 nM, membranes of CHO cells transfected with human α2C receptor; for IC50: read-out: pIC50 α2C (converted)
T2 construct: expressed in transfected cells; membrane preparation
T2 sequence (P18825 1-462): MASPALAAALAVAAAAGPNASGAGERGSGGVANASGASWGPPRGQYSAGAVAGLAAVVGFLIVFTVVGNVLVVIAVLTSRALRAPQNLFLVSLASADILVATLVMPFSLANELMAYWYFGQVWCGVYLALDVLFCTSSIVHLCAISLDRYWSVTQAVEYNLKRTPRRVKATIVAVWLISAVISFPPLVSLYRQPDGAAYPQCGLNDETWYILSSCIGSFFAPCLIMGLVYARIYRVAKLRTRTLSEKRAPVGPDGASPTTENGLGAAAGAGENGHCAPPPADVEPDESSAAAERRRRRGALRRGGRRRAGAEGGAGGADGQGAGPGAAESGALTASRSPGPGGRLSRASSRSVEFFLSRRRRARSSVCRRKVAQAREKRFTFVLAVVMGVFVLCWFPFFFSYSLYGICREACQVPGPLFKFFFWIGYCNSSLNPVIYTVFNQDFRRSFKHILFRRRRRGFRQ
Description: as §1, §2, §3, §4

[3] = molecular target: T3, human adrenergic-α2B receptor (Homo sapiens, UniProt P18089); experiment: Radioligand binding experiment for α2B-adrenoceptor ([3H]-raulwolscine competition, CHO cell membranes); details: [3H]raulwolscine 1 nM, membranes of CHO cells transfected with human α2B receptor; read-out: pIC50 α2B (converted)
T3 construct: expressed in transfected cells; membrane preparation
T3 sequence (P18089 1-450): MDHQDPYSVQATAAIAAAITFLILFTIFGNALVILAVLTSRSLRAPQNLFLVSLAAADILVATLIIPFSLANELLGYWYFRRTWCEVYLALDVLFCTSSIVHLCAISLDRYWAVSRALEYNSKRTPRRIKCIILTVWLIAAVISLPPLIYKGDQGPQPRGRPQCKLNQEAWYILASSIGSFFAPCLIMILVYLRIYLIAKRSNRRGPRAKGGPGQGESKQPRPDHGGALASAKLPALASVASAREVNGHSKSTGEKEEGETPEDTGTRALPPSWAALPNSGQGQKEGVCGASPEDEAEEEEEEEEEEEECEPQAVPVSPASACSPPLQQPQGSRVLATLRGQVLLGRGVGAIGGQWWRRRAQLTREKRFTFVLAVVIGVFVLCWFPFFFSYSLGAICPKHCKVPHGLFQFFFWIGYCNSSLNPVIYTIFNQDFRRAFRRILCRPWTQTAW
Description: as §1, §2, §3, §4

SMILES | IC50 [1] | IC50 [2] | IC50 [3] | pIC50 α2C [2]
COc1ccc(N2CCN(c3ccc(-n4cnn(C(C)C(C)NCCOc5ccccc5)c4=O)cc3)CC2)cc1 (stereo not drawn) [compound 10] | 631 nM | 15.8 nM | 501 nM | –
C/C(=C\c1ccccc1)CN1CCC(n2cnn(CCNCCOc3ccccc3)c2=O)CC1 [compound 28] | 126 nM | – | 200 nM | 8.4
O=c1n(-c2ccc(CN3CCc4ccccc4C3)cc2)cnn1CCNCCOc1ccccc1 [compound 27] | 25.1 nM | 1 nM | 79.4 nM | –
CN1CCCN(Cc2ccc(-n3cnn(CCNCCOc4ccccc4)c3=O)cc2)CC1 [compound 13] | 63.1 nM | 1 nM | 63.1 nM | –
O=c1n(-c2ccc(N3CCN(Cc4ccccc4)CC3)cc2)cnn1CCNCCOc1ccccc1 [compound 3] | 398 nM | 15.8 nM | 251 nM | –
CN(CCNc1ccc(-n2cnn(CC3CCN(CCOc4ccccc4)CC3)c2=O)cc1)Cc1ccccc1 [compound 43] | 25.1 nM | 1.58 nM | 6.31 nM | –
O=c1n(-c2ccc(CN3CCC(O)CC3)cc2)cnn1CCNCCOc1ccccc1 [compound 18] | 50.1 nM | 1.58 nM | 126 nM | –
C/C(=C\c1ccccc1)CN1CCC(n2cnn(Cc3ccc(CN)cc3)c2=O)CC1 [compound 32] | 126 nM | 12.6 nM | 50.1 nM | –
CC(NCCOc1ccccc1)C(C)n1ncn(-c2ccc(N3CCN(c4ccc(O)cc4)CC3)cc2)c1=O (racemic) [compound 5] | 501 nM | 10 nM | 501 nM | –
C/C(=C\c1ccccc1)CN1CCC(n2ncn(-c3ccc(CN)cc3)c2=O)CC1 [compound 34] | 39.8 nM | 10 nM | 50.1 nM | –
CC(NCCOc1ccccc1)C(C)n1ncn(-c2ccc(N3CCN(c4ccc(O)cc4)CC3)cc2)c1=O (single isomer, unassigned) [compound 7] | 126 nM | 7.94 nM | 126 nM | –
O=c1n(-c2ccc(CN3CCCC3)cc2)cnn1CCNCCOc1ccccc1 [compound 14] | 50.1 nM | 1 nM | 79.4 nM | –
O=c1n(CCN2CCCCC2)cnn1CCNCCOc1ccccc1 [compound 16] | 158 nM | 10 nM | 1580 nM | –

Continued, values first:

IC50 [1] | IC50 [2] | IC50 [3] | pIC50 α2C [2] | SMILES
15.8 nM | 1.58 nM | 126 nM | – | O=c1n(-c2ccc(CNCCN3CCCCC3)cc2)cnn1CCNCCOc1ccccc1 [compound 95]
31.6 nM | 5.01 nM | 79.4 nM | – | O=c1n(-c2ccc(CNCc3ccc(F)cc3)cc2)cnn1CCNCCOc1ccccc1 [compound 91]
631 nM | 10 nM | 398 nM | – | CC(=O)N1CCc2cc(-n3cnn(CCNCCOc4ccccc4)c3=O)ccc2C1 [compound 100]
50.1 nM | 2 nM | 251 nM | – | O=c1n(-c2ccc3c(c2)CCNC3)cnn1CCNCCOc1ccccc1 [compound 97]
79.4 nM | 1.26 nM | 20 nM | – | O=c1n(-c2ccc(CN3CCC(O)CC3)cc2)cnn1CC1CCN(CCOc2ccccc2)CC1 [compound 65]
126 nM | 10 nM | 3980 nM | – | O=c1n(CCNCCOc2ccccc2)cnn1CCN1CCCCC1 [compound 44]
316 nM | 20 nM | 200 nM | – | O=c1n(CCNCCOc2ccccc2)cnn1-c1ccc(CN2CCOCC2)cc1 [compound 45]
158 nM | 7.94 nM | 25.1 nM | – | O=c1n(-c2ccc(N3CCOCC3)cc2)cnn1CC1CCN(CCOc2ccccc2)CC1 [compound 72]
251 nM | 10 nM | 200 nM | – | O=c1n(-c2ccc3c(c2)CCN(Cc2ccc(F)cc2)C3)cnn1CCNCCOc1ccccc1 [compound 99]
63.1 nM | 1.26 nM | 10 nM | – | CN1CCCN(Cc2ccc(-n3cnn(CC4CCN(CCOc5ccccc5)CC4)c3=O)cc2)CC1 [compound 61]
39.8 nM | 2.51 nM | 50.1 nM | – | O=c1n(CC2CCN(CCOc3ccccc3)CC2)cnn1CCN1CCCCC1 [compound 66]
126 nM | 6.31 nM | 126 nM | – | NCc1ccc(Cn2cnn(CCNCCOc3ccccc3)c2=O)cc1 [compound 85]
79.4 nM | 3.16 nM | 251 nM | – | O=c1n(-c2ccc3c(c2)CCN(CCN2CCCC2)C3)cnn1CCNCCOc1ccccc1 [compound 102]
50.1 nM | 1.26 nM | 126 nM | – | O=c1n(-c2ccc(CNCC3CCCO3)cc2)cnn1CCNCCOc1ccccc1 (stereo not drawn) [compound 93]
1260 nM | 15.8 nM | 50.1 nM | – | COc1ccccc1C1CCN(C(C)C(C)n2ncn(-c3ccc(N4CCN(c5ccc(O)cc5)CC4)cc3)c2=O)C1 (stereo not drawn) [compound 55]
79.4 nM | 3.98 nM | 39.8 nM | – | O=C(Cn1cnn(CC2CCN(CCOc3ccccc3)CC2)c1=O)Nc1ccc(F)cc1 [compound 47]
39.8 nM | 2.51 nM | 7.94 nM | – | O=c1n(-c2ccc(CN3CCC(N4CCCC4)CC3)cc2)cnn1CC1CCN(CCOc2ccccc2)CC1 [compound 68]
316 nM | 5.01 nM | 50.1 nM | – | C/C(=C\c1ccccc1)CN1CCC(n2cnn(CCCN3C(=O)c4ccccc4C3=O)c2=O)CC1 [compound 83]
158 nM | 7.94 nM | 7.94 nM | – | CN1CCN(c2ccc(-n3cnn(CC4CCN(CCOc5ccccc5)CC4)c3=O)cc2)CC1 [compound 51]
